The numbers were not newly measured in patent US20220370535A1, “ANTIVIRAL ESSENTIAL OIL COMPOSITIONS” (priority 2020, published 2022), which cites them from elsewhere.

As a reminder, the EC50 is the midpoint of the concentration-response curve.

One series relates to SARS-CoV-2. Particulars: inhibition of the virus in cell-based assay.
Another series addresses SARS-CoV-2, Mpro (Severe acute respiratory syndrome coronavirus 2, UniProt P0DTD1). Particulars: nelfinavir, pitavastatin, perampanel, praziquantel compared.

Take `CCN(CC)CCCC(C)Nc1ccnc2cc(Cl)ccc12` (centres unmarked) [chloroquine]: the EC50 in the series with SARS-CoV-2 is 1.13 µM.

For the compound `Cc1c(O)cccc1C(=O)N[C@@H](CSc1ccccc1)[C@H](O)CN1C[C@H]2CCCC[C@H]2C[C@H]1C(=O)NC(C)(C)C` [nelfinavir], at SARS-CoV-2, Mpro, the “inhibitor ranking among 4 tested drugs” value is given as “most potential inhibitor”.
